The source of these data is patent publication EP0126012B1, “Pharmaceutical compositions containing symmetrical disulfides” (SANOFI S.A., priority 1983, dated 1984).

Assay [1] deals with globules rouges des drépanocytaires. As to the kind of experiment: Inhibition of sickling of human erythrocytes from sickle-cell patients under deoxygenation (Nomarski microscopy). Type of assay: cell-based, humains. The following applies: inhibition de la falciformation des érythrocytes; incubation 1 h at 37°C, pH 7,40, with product; molar ratio produit/hémoglobine initially 0,5 to 20; ratio used for the table values not given. As for the experimental part:
L'inhibition de la falciformation des érythrocytes humains a été évaluée selon la méthode consistant à laver et incuber dans un tampon salin (pH 7,40 - 0,15 M), les globules rouges des drépanocytaires pendant une heure à 37°C dans un bainmarie sous agitation circulaire en présence du produit ci-dessus à différentes concentrations. Dans cette opération le rapport molaire produit/hémoglobine est testé initialement dans l'intervalle allant de 0,5 à 20. En fonction des résultats obtenus, ce rapport est modifié. A la fin de l'incubation, l'excès de produit est enlevé par lavage. La suspension cellulaire ajustée à un hématocrite de 5 % est transférée dans un Erlenmeyer et incubée à 37°C sous un courant d'un mélange humidifié d'azote et d'oxygène. La concentration d'oxygène est réglée par une pompe à mélange gazeux. Le gaz effluent est transféré dans un autre tube contenant du formaldéhyde. A la fin de l'incubation, la suspension cellulaire est transférée dans le formaldéhyde par simple retournement de la fiole.
La proportion des cellules déformées et de celles ayant les caractéristiques de drépanocytes (présentant deux prolongements filiformes) est évaluée à l'aide d'un microscope ayant une optique interférentielle de NOMARSKY. L'inhibition de la falciformation a été calculée selon la formule suivante: • % cellules falciformées - % cellules falciformées en témoins présence de la drogue % cellules falciformées du témoin

The subject of another assay is falciformation. The following applies: literature (Inserm Symposium 1979); cited from earlier work.

The structures appear in SMILES notation.

`c1c[nH]c(SSc2ncc[nH]2)n1` [2,2'-dithiodi(1H-imidazole)]: the “% inhibition” value in assay [1] turned out to be 80%.
Same read-out and setting: the result for `C1CSC(SSC2=NCCS2)=N1` [2,2'-dithiodi(4,5-dihydrothiazole)] reads 90%; that for `c1cnc(SSc2ncccn2)nc1` [2,2'-dithiodipyrimidine], 50%.
On to `c1nc(SSc2nc[nH]n2)n[nH]1` [3,3'-dithiodi(1H-1,2,4-triazole)], for which the “% inhibition” value in assay [1] is 100%.
Consider `NCCSSCCN` [cystamine, reference compound], for which the “% inhibition” value in assay [1] worked out at 33%. Besides, the “inhibition de la falciformation” value in the assay with falciformation is “particulièrement active”.
For the compound `NC(=O)CSSCC(N)=O` [dithio-diacétamide], the “% inhibition” value in assay [1] was determined as 80%.
Still for that read-out and setting: the result for `CN(C)C(=O)CSSCC(=O)N(C)C` [dithiodi(N,N-diméthyl)acétamide] reads 95%; that for `N=C(N)SSC(=N)N` [dithiodiformamidine], 100%.
